For 24 molecules, IC50 results are on record in patent US20250136568A1, “FUSED HETEROCYCLIC COMPOUNDS AS PI3KALPHA INHIBITORS” (Nanjing Zenshine Pharmaceuticals Co., Ltd., priority 2021, published 2025).

The IC50 is the concentration that gives 50% inhibition.

Read-outs that look alike come from different tables or passages of the source.

Experiment [1] deals with PI3Kα wide type cell line SK-BR-3. Description: Cell Proliferation IC50 Assay (CellTiter-Glo), SK-BR-3. It counts as cell-based. As to conditions: Homo sapiens; SK-BR-3 (PI3Kα wild type), 72 hours, CellTiter-Glo; read-out: IC50 (μM) SK-BR-3. The gist of the method:
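Read-out was CellTiter-Glo luminescence after 72 h of compound exposure at 37 °C, 5% CO2. Cells had been plated overnight in complete medium before the compound was added at a 200-fold final dilution. IC50 was derived from percent inhibition.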
(Cellular ATP, detected with luciferase, serves as a proxy for viable cell number.)

For experiment [2], the system named is PI3Kα H1047R mutation cell line MDA-MB-453. The experiment is described as follows: Cell Proliferation IC50 Assay (CellTiter-Glo), MDA-MB-453. As to conditions: Homo sapiens, read-out: IC50 (μM) MDA-MB-453. It counts as cell-based. The text has this:
PI3Kα H1047R mutation cell line T-47D and MDA-MB-453, E545K mutation cell line MDA-MB-361 and PI3Kα wide type cell line SK-BR-3 were purchased from Cobioer Biotech (cat. no CBP60397, CBP60386, CBP60383 and CBP60413 respectively). The CellTiter-Glo Direct Cell Proliferation Assay Kit was purchased from Prornega (cat. No. G7573)
For cell proliferation assay in each cell line: • a. Prepare complete medium (R PMI 1640, DMEM or McCoys): Add FBS and appropriate additives according to the information sheet provided by the vendor. Mix gently. • b. Prepare single cell suspension and count the cell numbers and adjust cells to appropriate density. • c. Add 80 μL of cell suspension to 96-well opaque-walled clear bottom plates according to the planned plate layout and place the plates in the CO2 incubator overnight. • d. Prepare intermediate plate: 10 μl of diluted test compounds or staurosporine solution (200×) is added to a 96 deep well plate. Then 390 μl of culture medium without FBS is added to the respective wells. • e. Transfer 20 μL of the solutions from the above intermediate plate to the wells of the plate prepared containing 80 μL of the culture medium and cells. The total dilution is 200 folds. • f. The cells were then incubated at 5% CO2, 37° C. for 72 hours. • g. Equilibrate the plate and its contents to room temperature for approximately 30 minutes. • h. Add 100 μL of CellTiter-Glo reagent to the assay plate • i. Mix contents for 10 minutes on an orbital shaker to induce cell lysis. • j. Allow the plate to incubate at room temperature for 10 minutes to stabilize luminescent signal, • k. Paste the clear bottom with white back seal and record luminescence with Varioskan LUX plate reader.
Inhibition % and IC50 value were calculated by the formula described below: […]

The mark [3] stands for this setting: MDA-MB-453 (H1047R), 72 hours, CellTiter-Glo.

Regarding `Cc1cc(C(C)Nc2ccccc2C(=O)O)c2oc(-c3cccc4c3CN(C)C4=O)cc(=O)c2c1` (stereo not drawn) [Example 24, 2-((1-(6-methyl-2-(2-methyl-1-oxoisoindolin-4-yl)-4-oxo-4H-chromen-8-yl)ethyl)amino)benzoic acid], the figures for the IC50 in experiment [1] and in experiment [2] (setting [3]) were over 10 µM and 4.07 µM, respectively.

Consider `Cc1cc(C(C)Nc2ccccc2C(=O)O)c2oc(-c3cc4cn(C)nc4cc3C)cc(=O)c2c1` (stereo not drawn) [Example 61, 2-((1-(2-(2,6-dimethyl-21-indazol-5-yl)-6-methyl-4-oxo-4H-chromen-8-yl)ethyl)amino)benzoic acid], for which the IC50 in experiment [1] was over 10 µM; in experiment [2] (setting [3]) it was 8.48 µM.

`Cc1cc(C(C)Nc2ccccc2C(=O)O)c2oc(-c3ccc4c(c3)CN(C(C)C)C4=O)cc(=O)c2c1` (stereo not drawn) [Example 44, -((1-(2-(2-isopropyl-1-oxoisoindolin-5-yl)-6-methyl-4-oxo-4H-chromen-8-yl)ethyl)amino)benzoic acid]: the values for the IC50 in experiment [1] and in experiment [2] (setting [3]) were over 10 µM and 0.39 µM, respectively.

Consider `Cc1cc(C(C)Nc2ccccc2C(=O)O)c2oc(-c3ccc(CN4CCOCC4)cc3)c(C)c(=O)c2c1` (stereo not drawn) [Example 128, 2-((1-(3,6-dimethyl-2-(4-(morpholinomethyl)phenyl)-4-oxo-4H-chromen-8-yl)ethyl)amino)benzoic acid], for which the IC50 in experiment [1] was over 10 µM; in experiment [2] (setting [3]), 0.16 µM.

On to `Cc1cc(C(C)Nc2ccccc2C(=O)O)c2oc(-c3ccc(N4CCN(C)CC4)cc3)c(C)c(=O)c2c1` (stereo not drawn) [Example 90, 2-((1-(3,6-dimethyl-2-(4-(4-methylpiperazin-1-yl)phenyl)-4-oxo-4H-chromen-8-yl)ethyl)amino)benzoic acid], for which the figures for the IC50 in experiment [1] and in experiment [2] (setting [3]) were over 10 µM and 0.09 µM, respectively.

As to `Cc1cc(C(C)Nc2ccccc2C(=O)O)c2oc(-c3ccc4c(c3)CN(Cc3ccccc3)C4=O)cc(=O)c2c1` (stereo not drawn) [Example 46, 2-((1-(2-(2-benzyl-1-oxoisoindolin-5-yl)-6-methyl-4-oxo-4H-chromen-8-yl)ethyl)amino)benzoic acid], the IC50 is over 10 µM in experiment [1] and 0.42 µM in experiment [2] (setting [3]).

With `Cc1cc(C(C)Nc2ccccc2C(=O)O)c2oc(-c3ccc(N4CCOCC4=O)cc3)cc(=O)c2c1` (stereo not drawn) [Example 64, 2-((1-(6-methyl-4-oxo-2-(4-(3-oxomorpholino)phenyl)-4H-chromen-8-yl)ethyl)amino)benzoic acid], the IC50 was over 10 µM in experiment [1] and 1.9 µM in experiment [2] (setting [3]).

As for `Cc1cc(C(C)Nc2ccccc2C(=O)O)c2oc(-c3ccc4nn(C)c(C)c4c3)cc(=O)c2c1` (stereo not drawn) [Example 111, 2-((1-(2-(2,3-dimethyl-2H-indazol-5-yl)-6-methyl-4-oxo-4H-chromen-8-yl)ethyl)amino)benzoic acid], the IC50 in experiment [1] was over 10 µM; in experiment [2] (setting [3]), 0.87 µM.

Consider `Cc1cc(C(C)Nc2ccccc2C(=O)O)c2oc(C3CCN(c4ccccn4)CC3)c(C)c(=O)c2c1` (stereo not drawn) [Example 124, 2-((1-(3,6-dimethyl-4-oxo-2-(1-(pyridin-2-yl)piperidin-4-yl)-4H-chromen-8-yl)ethyl)amino)benzoic acid], for which the IC50 was over 10 µM in experiment [1] and 0.5 µM in experiment [2] (MDA-MB-453, 72 h).

On to `Cc1cc(C(C)Nc2ccccc2C(=O)O)c2oc(-c3ccc(S(C)(=O)=O)cc3)c(C)c(=O)c2c1` (stereo not drawn) [Example 127, 2-((1-(3,6-dimethyl-2-(4-(methylsulfonyl)phenyl)-4-oxo-4H-chromen-8-yl)ethyl)amino)benzoic acid], for which the IC50 in experiment [1] and in experiment [2] (setting [3]) was over 10 µM each time.

`Cc1cc(C(C)Nc2ccccc2C(=O)O)c2oc(-c3ccc4nn(C)cc4n3)cc(=O)c2c1` (stereo not drawn) [Example 84, 2-((1-(6-methyl-2-(2-methyl-2H-pyrazolo[4,3-b]pyridin-5-yl)-4-oxo-4H-chromen-8-yl)ethyl)amino)benzoic acid]: the IC50 was over 10 µM in experiment [1] and 0.26 µM in experiment [2] (setting [3]).

Turning to `CC(=O)N1CCN(c2ccc(-c3cc(=O)c4cc(C)cc(C(C)Nc5ccccc5C(=O)O)c4o3)cc2)CC1` (stereo not drawn) [Example 65, 2-((1-(2-(4-(4-acetylpiperazin-1-yl)phenyl)-6-methyl-4-oxo-4H-chromen-8-yl)ethyl)amino)benzoic acid], the IC50 in experiment [1] was over 10 µM; in experiment [2] (setting [3]), 0.21 µM.

On to `Cc1cc(C(C)Nc2ccccc2C(=O)O)c2oc(C3CCC(c4ccccc4)CC3)c(C)c(=O)c2c1` (stereo not drawn) [Example 130, 2-((1-(3,6-dimethyl-4-oxo-2-(4-phenylcyclohexyl)-411-chromen-8-yl)ethyl)amino)benzoic acid], for which the IC50 in experiment [1] and in experiment [2] (setting [3]) was over 10 µM each time.

For the molecule `Cc1cc(C(C)Nc2ccccc2C(=O)O)c2oc(-c3ccc(N4CCS(=O)(=O)CC4)cc3)c(C)c(=O)c2c1` (stereo not drawn) [Example 132, 2-((1-(2-(4-(1,1-dioxidothiomorpholino)phenyl)-3,6-dimethyl-4-oxo-4H-chromen-8-yl)ethyl)amino)benzoic acid], the IC50 is over 10 µM in experiment [1] and 0.27 µM in experiment [2] (setting [3]).

On to `Cc1cc([C@@H](C)Nc2ccccc2C(=O)O)c2oc(-c3ccc(N4CCN(C5COC5)CC4)cc3)c(C)c(=O)c2c1` [Example 118, (R)-2-((1-(3,6-dimethyl-2-(4-(4-(oxetan-3-yl)piperazin-1-yl)phenyl)-4-oxo-4H-chromen-8-yl)ethyl)amino)benzoic acid], for which the IC50 in experiment [1] worked out at 7.52 µM; in experiment [2] (MDA-MB-453, 72 h), 0.14 µM.

On to `Cc1cc(C(C)Nc2ccccc2C(=O)O)c2oc(-c3ccc4nn(C)nc4c3)cc(=O)c2c1` (stereo not drawn) [Example 69, 2-((1-(6-methyl-2-(2-methyl-2H-benzo[d][1,2,3]triazol-5-yl)-4-oxo-4H-chromen-8-yl)ethyl)amino)benzoic acid], for which the results for the IC50 in experiment [1] and in experiment [2] (setting [3]) were over 10 µM and 1.06 µM, respectively.

In the case of `Cc1cc(C(C)Nc2ccccc2C(=O)O)c2oc(-c3ccc4cn(C)nc4c3)cc(=O)c2c1` (stereo not drawn) [Example 51, 2-((1-(6-methyl-2-(2-methyl-211-indazol-6-yl)-4-oxo-4H-chromen-8-yl)ethyl)amino)benzoic acid], the figures for the IC50 in experiment [1] and in experiment [2] (setting [3]) were over 10 µM and 2.48 µM, respectively.

`Cc1cc(C(C)Nc2ccccc2C(=O)O)c2oc(-c3ccc4ncn(C)c4c3)cc(=O)c2c1` (stereo not drawn) [Example 60, 2-((1-(6-methyl-2-(1-methyl-1H-benzo[d]imidazol-6-yl)-4-oxo-4H-chromen-8-yl)ethyl)amino)benzoic acid]: the IC50 was over 10 µM in experiment [1] and 6 µM in experiment [2] (setting [3]).

Regarding `Cc1cc([C@@H](C)Nc2ccccc2C(=O)O)c2oc(-c3ccnc(C(=O)N(C)C)c3)c(C)c(=O)c2c1` [Example 134, (R)-2-((1-(2-(2-(dimethylcarbamoyl)pyridin-4-yl)-3,6-dimethyl-4-oxo-4H-chromen-8-yl)ethyl)amino)benzoic acid], the IC50 in experiment [1] was over 10 µM; in experiment [2] (setting [3]), 0.56 µM.

Consider `Cc1cc(C(C)Nc2ccccc2C(=O)O)c2oc(-c3cncs3)cc(=O)c2c1` (stereo not drawn) [Example 27, 2-((1-(6-methyl-4-oxo-2-(thiazol-5-yl)-4H-chromen-8-yl)ethyl)amino)benzoic acid], for which the IC50 in experiment [1] was over 10 µM; in experiment [2] (setting [3]), 0.74 µM.

For `CCN1Cc2cc(-c3cc(=O)c4cc(C)cc(C(C)Nc5ccccc5C(=O)O)c4o3)ccc2C1=O` (stereo not drawn) [Example 7, 2-((1-(2-(2-ethyl-1-oxoisoindolin-5-yl)-6-methyl-4-oxo-4H-chromen-8-yl)ethyl)amino)benzoic acid], the values for the IC50 in experiment [1] and in experiment [2] (setting [3]) were over 10 µM and 0.25 µM, respectively.

Take `Cc1cc(C(C)Nc2ccccc2C(=O)O)c2oc(-c3ccc(C(=O)N4CCOCC4)cc3)c(C)c(=O)c2c1` (stereo not drawn) [Example 129, 2-((1-(3,6-dimethyl-2-(4-(morpholine-4-carbonyl)phenyl)-4-oxo-4H-chromen-8-yl)ethyl)amino)benzoic acid]: the IC50 in experiment [1] is over 10 µM; in experiment [2] (setting [3]) it was 0.26 µM.

In the case of `Cc1cc(C(C)Nc2ccccc2C(=O)O)c2oc(-c3ccc4nn(C)cc4c3C)cc(=O)c2c1` (stereo not drawn) [Example 62, 2-((1-(2-(2,4-dimethyl-2H-indazol-5-yl)-6-methyl-4-oxo-4H-chromen-8-yl)ethyl)amino)benzoic acid], the 50% inhibitory concentration (IC50) in experiment [1] was over 10 µM; in experiment [2] (setting [3]), 0.47 µM.

Take `Cc1cc(C(C)Nc2ccccc2C(=O)O)c2oc(-c3ccc4c(=O)n(C)ccc4c3)cc(=O)c2c1` (stereo not drawn) [Example 120, 2-((1-(6-methyl-2-(2-methyl-1-oxo-1,2-dihydroisoquinolin-6-yl)-4-oxo-4H-chromen-8-yl)ethyl)amino)benzoic acid]: the IC50 in experiment [1] was over 10 µM; in experiment [2] (setting [3]), 1.18 µM.
